Series [1] deals with WT mice. In words: Behavioural examinations in WT mice (Fig. 5e-h; Table 2). Format: in vivo, mouse. Particulars: NB001 1 mg kg^-1 IP, marble burying, light/dark, social interaction, AGS. As for the experimental part:
Repetitive behaviour was determined by the marble burying test as described. 3-month-(+/−10 days) old mouse was placed in a regular mouse cage filled with 7.6 cm-deep bedding for 1 h before the test. The mouse was then briefly removed from the testing box and 15 marbles were evenly arranged in a 5 × 3 pattern on the surface of the bedding. The mouse was reintroduced into the testing box and was allowed to bury marbles for 10 min. At the end of the testing period, the number of marbles that were fully buried, partially buried and left on the surface was counted.
Light/dark test was examined as described in our previous study. Light/dark test was performed using 3-month (+/−10 days) old mouse, which was first placed in the dark half of the chamber (Coulbourn Instruments). […] The time spent in each chamber and the number of entries into the lit side were recorded.
Audiogenic seizures (AGS) were examined with 21- to 24-day-old-mouse (7), as this phenotype is dependent on the age of the mouse and only detected in juvenile Frm1 KO mouse. […] The number of mice undergoing seizure activity within the 2-min period was counted. […]
Social interaction was determined by the 3-chamber test as described. […] The entrances were then opened and the activity of the test mouse was recorded. Time spent in each of the chambers and time spent sniffing the stranger mouse enclosure versus the empty enclosure were recorded. […]

In series [2] the test system is WT and Fmr1 KO mice. Kind of series: 3-chamber social interaction test. Format: in vivo, mouse. Particulars: NB001 1 mg kg^-1 IP, 1 h before testing; relative to WT level. As for the experimental part: Social interaction was determined by the 3-chamber test as described. Mouse at 3 months (+/−10 days) of age was placed in a 3-chamber social interaction box and allowed to explore freely for 5 min. […] During the test, mouse was placed in the center chamber and the entrances to the side chambers were blocked. A novel stimulus mouse in a wire enclosure and an empty wire enclosure were placed in one of the side chambers, respectively. The entrances were then opened and the activity of the test mouse was recorded. Time spent in each of the chambers and time spent sniffing the stranger mouse enclosure versus the empty enclosure were recorded.
NB001 was dissolved in water to give a 25 mM stock solution. The stock was diluted in saline and IP injected into mice at 1 mg kg^−1 body weight. In all cases, the drug was administered 1 h before testing. Control mice were treated similarly but injected with saline.

The test system of series [3] is mice. In words: Clinical panel blood test after 14 days of NB001. It counts as in vivo, mouse. Here is the method:
Mice at 3 months (+/−10 days) of age were IP injected with NB001 twice daily at 50 mg kg^−1 for 2 weeks. Clinical observations were performed twice daily and body weights were measured on various days during the dosing regimen. At the end of the dosing period, mice were killed and blood was collected for clinical pathology (Diagnostic Center for Population and Animal Health, Michigan State University). The liver and kidney were collected and fixed in 10% buffered formalin (INVIVO facility at Michigan State University).

Series [4] deals with neuropathic pain. Details: method as in PMID 21228397. Particulars: systemic administration; cited from earlier work.
Where [5] appears, read: blood, NB001 50 mg per kg twice per day for 14 days.
Where [6] appears, read: blood, NB001 50 mg per kg twice per day for 14 days, mean ± SEM.

The text below walks through data of PMC5321753, “Enhanced expression of ADCY1 underlies aberrant neuronal signalling and behaviour in a syndromic autism model” (Nature Communications, 2017).

Consider `Nc1ncnc2c1ncn2CCNCCCCCO` [NB001, 5-{[2-(6-amino-9H-purin-9-yl)ethyl]amino}-1-pentanol], for which the “behaviour in WT mice” value in series [1] is “did not cause measurable changes”. The “reduced social interaction in Fmr1 KO mice” value in series [2] is reported as “normalized”. In addition, in series [3] (NB001 50 mg kg^-1 twice a day for 14 days), the “concentrations of various electrolytes and levels of the main toxicity-related proteins (such as aminotransferases)” value is “no effect”. Besides, in series [3] (alanine aminotransferase, blood, NB001 50 mg per kg twice per day for 14 days, mean ± SEM), the ALT stood at 18.50 ±0.96 U/L. The same compound showed an ALP in series [3] (alkaline phosphatase, blood, NB001 50 mg per kg twice per day for 14 days, mean ± SEM) of 62.75 ±4.48 U/L. Further, in series [3] (aspartate aminotransferase, blood, NB001 50 mg per kg twice per day for 14 days, mean ± SEM), the AST is 32.50 ±1.55 U/L. In addition, in series [3] (setting [5]), the “Hemolysis Chem” value is listed as “Normal”, the “Icterus Chem” value is “Normal” and the “Lipemia Chem” value is “Normal”. Moreover, in series [3] (setting [6]), the Albumin stood at 2.65 ± 0.13 g/dL, the Amylase was 586.50 ±29.02 U/L, the “Anion Gap” value came out at 29.50 ± 2.36 mmol/L and the Calcium was determined as 8.83 ± 0.20 mg/dL. Also, in series [3] (setting [6]), the Chol turned out to be 100.00 ± 5.96 mg/dL, the Glucose came out at 216.50 ± 8.50 mg/dL, the Magnesium stood at 2.60 ± 0.11 mg/dL and the “Na/K Ratio” value stood at 32.00 ±1.47. In series [3] (setting [6]), the Osmolarity is given as 321.00 ±4.00 mOs/L, the Phosphorus was determined as 6.50 ± 0.24 mg/dL, the Potassium turned out to be 4.73 ± 0.22 mmol/L and the Sodium came out at 150.50 ± 1.50 mmol/L. Besides, in series [3] (setting [6]), the “Total CO2” value was determined as 13.50 ± 1.04 mmol/L and the “Urea Nitrogen” value came to 24.50 ± 0.87 mg/dL. The neuropathic pain entry in series [4] was “attenuates”.
